Laboratory results from patent publication US9481637B2, “Compounds for the treatment of seizures and other central nervous systems disorders and conditions” (Ketogen Inc., priority 2014, dated 2016).

Assays:
Format in all cases: in vivo
[1] = system: 6 Hz-induced psychomotor seizures in CD-1 mice; assay: 6 Hz psychomotor seizure test; conditions: for mice protected from psychomotor seizure / incidence of psychomotor seizures: 1 h pretreatment; for incidence of psychomotor seizures: vs Vehicle
From the text: Male, experimentally naive CD-1 mice were used in these experiments. At a defined time following drug or vehicle pretreatment, all mice received an electrical stimulus (6 Hz, 0.2 ms pulse width, 3 s duration, 32 mA) via corneal electrodes moistened with saline (ECT unit 57800; Ugo Basile). Preliminary experiments established that these stimulus parameters elicited a psychomotor seizure, defined as the expression of at least one of the following behaviors: stun/immobility, forelimb clonus, straub tail, lateral head movement, in >95% of control animals. Protection was defined as complete absence of all the above behaviors within 20 s of stimulus delivery. The effective dose of compound necessary to protect against psychomotor seizures to 50% of controls (i.e. ED50) was determined by curve fitting program.
(§1) Male mice (body wt. 20-40 g) were used for all studies. Mice were used in one of the following 4 seizure tests: maximal electroshock seizure (MES) test, subcutaneous injection of pentylenetetrazol (scPTZ) test, seizures induced by 6 Hz stimulation (6 Hz), and corneal kindled seizures. These tests were selected because no single test detects all known anti-epileptic drugs (AED's), but all currently known AED's are detected as active (i.e. prevent seizures) in at least one of these tests. Subjects were tested in one of the 4 seizure tests following a defined time after treatment with either test drug or vehicle control. Following administration of test drug or vehicle by either the oral, subcutaneous or intraperitoneal route, the animals were tested according to one of the methods outlined below (1-4). Typically the pretreatment time was 60 minutes although in some cases this varied from 30 min to 4 h.
3. 6 Hz Psychomotor Seizure Test:
Male CD-1 mice received an electrical stimulus (6 Hz, 0.2 ms pulse width, 3 s duration, 32 mA) via corneal electrodes moistened with saline (ECT unit 57800; Ugo Basile). These stimulus parameters should elicit a psychomotor seizure, defined as the expression of at least one of the following behaviours: stun/immobility, forelimb clonus, straub tail, vibrissae tremor, lateral head movement, in >95% of control animals within 30 s of stimulus delivery. To establish drug efficacy, test drug or vehicle was administered at a defined timepoint prior to the 6 Hz test, to separate experimental groups. The effect of treatment on subsequent seizure was noted. Protection is defined as complete absence of all the above behaviours within 20 s of stimulus delivery. The experiment was terminated immediately once the endpoint was met.

[2] = system: MES-induced tonic seizures in CD-1 mice; assay: Maximal electroshock test (MES test)
From the text: as §1
1. Maximal Electroshock Test (MES Test):
Male CD-1 mice received a maximal electroshock (45 mA, 0.2 s duration, 60 Hz) via corneal electrodes moistened with saline (shock stimulator type 221; Harvard apparatus). This stimulus intensity should elicit a full tonic seizure in >95% of control animals. Protection is defined as absence of a full tonic seizure within 15 s of stimulus delivery. To establish drug efficacy, test drug or vehicle was administered at a defined timepoint prior to the MES test, to separate experimental groups. The experiment was terminated immediately once the endpoint was met.

[3] = system: scPTZ-induced seizures in CD-1 mice; assay: s.c. pentylenetetrazol seizure test (scPTZ test)
From the text: as §1
2. s.c. Pentylenetetrazol Seizure Test (PTZ Test):
Male CD-1 mice received a single subcutaneous injection of pentylenetetrazol (PTZ: 85 mg/kg). This dose of PTZ should elicit a clonic seizure in >95% of control animals. Following PTZ injection, the animals were immediately transferred to single observation cages and observed continuously for 30 min. To establish drug efficacy, test drug or vehicle was administered at a defined timepoint prior to the PTZ administration, to separate experimental groups. The effect of treatment on subsequent seizure was noted. Protection is defined as complete absence of a clonic seizure, including a forelimb clonus, over the 30 min observation period. In the event of a seizure, the onset latency from PTZ injection was recorded. The experiment was terminated immediately once the endpoint was met, or in the case of protection, at the completion of the 30 min test period.

[4] = system: corneal kindled seizures in CD-1 mice; assay: Mouse corneal kindling; conditions: 75 and 300 mg/kg; IP and oral routes
From the text: as §1
4. Mouse Corneal Kindling:
Male CD-1 mice (body wt. 20-40 g) were used for these studies. There are 3 phases to the procedure: (1) kindling development phase, (2) kindling stability/persistence phase, and (3) drug testing phase.
1. […]
Drug testing was conducted using a repeated measures design with mice receiving up to 4 doses of a test drug and control treatments in a counterbalanced sequence. […] For each stimulation, the kindling score was assessed according to the Racine (1972) rating scale. […]

[5] = 75-600 mg/kg IP and oral routes
[6] = 37.5-600 mg/kg IP and oral routes
[7] = 150, 300 and 600 mg/kg IP and 600 mg/kg oral

CCCCCCCCC(=O)NCC1(CC(=O)O)CCCCC1 [compound 4, 2-(1-(nonanamidomethyl)cyclohexyl)acetic acid] was tested, and the “mice protected from psychomotor seizure” value ([1]; 600 mg/kg IP) was “all mice”, the “mice protected from psychomotor seizure” value ([1]; 600 mg/kg oral) was “No mice” and the “incidence of psychomotor seizures” value ([1]; 150-600 mg/kg IP) was “dose-related decrease in the incidence of seizures”.
With CCCCCCCCCC(=O)NC[C@H](CC(=O)O)CC(C)C [compound 14, (S)-3-(decanamidomethyl)-5-methylhexanoic acid] the “incidence of psychomotor seizures” value [1, 5] was “dose-related decrease in the incidence of seizures” and the “mice protected from psychomotor seizure” value ([1]; 300-600 mg/kg IP) was “all mice”.
In the case of CCCCCCCC(=O)NC(=O)[C@H](CC)N1CCCC1=O [compound 20, (S)—N-(2-(2-oxopyrrolidin-1-yl)butanoyl)octanamide], the “6 Hz-induced seizures vs vehicle control (FIG. 8)” value ([1]; 75, 150, 300 or 600 mg/kg 1 hr pre-stimulation, 300 mg/kg at 2 and 4 hr, oral or IP) is reported as “reduced seizures”, the “6 Hz EC50 (mg/kg)” value ([1]; Dose route IP) is reported as 90 mg/kg and the “6 Hz EC50 (mmol/kg)” value ([1]; Dose route IP) is reported as 0.3 mmol/kg. For the same compound, the “6 Hz EC50 (mg/kg)” value ([1]; Dose route PO) was 130 mg/kg, the “6 Hz EC50 (mmol/kg)” value ([1]; Dose route PO) was 0.44 mmol/kg and the “MES-induced tonic seizures vs vehicle control (FIG. 7)” value ([2]; 600 mg/kg IP) was “reduced seizures”. The “MES EC50 (mg/kg)” value ([2]; Dose route IP) was greater than 600 mg/kg, the “MES EC50 (mmol/kg)” value ([2]; Dose route IP) was greater than 2.02 mmol/kg and the “MES EC50 (mg/kg)” value ([2]; Dose route PO) was greater than 600 mg/kg. The “MES EC50 (mmol/kg)” value ([2]; Dose route PO) was greater than 2.02 mmol/kg, the “scPTZ-induced seizures vs vehicle control (FIG. 9)” value ([3]; 300 and 600 mg/kg IP) was “reduced seizures” and the “ScPTZ EC50 (mg/kg)” value ([3]; Dose route IP) was greater than 600 mg/kg. The “ScPTZ EC50 (mmol/kg)” value ([3]; Dose route IP) was greater than 2.02 mmol/kg, the “ScPTZ EC50 (mg/kg)” value ([3]; Dose route PO) was greater than 600 mg/kg and the “ScPTZ EC50 (mmol/kg)” value ([3]; Dose route PO) was greater than 2.02 mmol/kg. For the same compound, the “corneal kindled seizures (Racine kindling score) vs vehicle control (FIG. 10)” value [4] was “reduced seizures”.
For CCCCCCCCC(=O)NC(=O)[C@H](CC)N1CCCC1=O [compound 21, (S)—N-(2-(2-oxopyrrolidin-1-yl)butanoyl)nonanamide], the “incidence of psychomotor seizures” value [1, 5] was “dose-related decrease in the incidence of seizures” and the “mice protected from psychomotor seizure” value ([1]; 300-600 mg/kg IP) was “all mice”.
With CCCCCCCCCC(=O)NC(=O)[C@H](CC)N1CCCC1=O [compound 22, (S)—N-(2-(2-oxopyrrolidin-1-yl)butanoyl)decanamide] the “mice protected from psychomotor seizure” value ([1]; 600 mg/kg IP) was “all mice” and the “incidence of psychomotor seizures” value [1, 5] was “dose-related decrease in the incidence of seizures”.
In the case of CCCCC(CC)CCC(=O)NC(=O)[C@H](CC)N1CCCC1=O (stereo partly drawn) [compound 25, 4-ethyl-N—((S)-2-(2-oxopyrrolidin-1-yl)butanoyl)octanamide], the “incidence of psychomotor seizures” value [1, 6] is reported as “dose-related decrease in the incidence of seizures”, the “mice protected from psychomotor seizure” value ([1]; 300-600 mg/kg IP) is reported as “all mice” and the “6 Hz EC50 (mg/kg)” value ([1]; Dose route IP) is reported as 46 mg/kg. The “6 Hz EC50 (mmol/kg)” value ([1]; Dose route IP) was 0.14 mmol/kg, the “6 Hz EC50 (mg/kg)” value ([1]; Dose route PO) was 50 mg/kg and the “6 Hz EC50 (mmol/kg)” value ([1]; Dose route PO) was 0.15 mmol/kg. The “MES-induced tonic seizures vs vehicle control (FIG. 11)” value [2, 7] was “reduced seizures”, the “MES EC50 (mg/kg)” value ([2]; Dose route IP) was 397 mg/kg and the “MES EC50 (mmol/kg)” value ([2]; Dose route IP) was 1.22 mmol/kg. The “MES EC50 (mg/kg)” value ([2]; Dose route PO) was greater than 600 mg/kg, the “MES EC50 (mmol/kg)” value ([2]; Dose route PO) was greater than 1.85 mmol/kg and the “scPTZ-induced seizures (incidence, onset latency) vs vehicle control (FIGS. 12-13)” value [3, 7] was “reduced seizures”. The “ScPTZ EC50 (mg/kg)” value ([3]; Dose route IP) was 310 mg/kg, the “ScPTZ EC50 (mmol/kg)” value ([3]; Dose route IP) was 0.95 mmol/kg and the “ScPTZ EC50 (mg/kg)” value ([3]; Dose route PO) was 600 mg/kg. The “ScPTZ EC50 (mmol/kg)” value ([3]; Dose route PO) was 1.85 mmol/kg.
For CCCCC1CCC(C(=O)NC(=O)[C@H](CC)N2CCCC2=O)CC1 (stereo partly drawn) [compound 26, (S)-4-butyl-N-(2-(2-oxopyrrolidin-1-yl)butanoyl)cyclohexane-1-carboxamide], the “incidence of psychomotor seizures” value [1, 6] was “dose-related decrease in the incidence of seizures”, the “mice protected from psychomotor seizure” value ([1]; 300-600 mg/kg IP) was “all mice” and the “6 Hz EC50 (mg/kg)” value ([1]; Dose route IP) was 80 mg/kg. The “6 Hz EC50 (mmol/kg)” value ([1]; Dose route IP) was 0.24 mmol/kg, the “6 Hz EC50 (mg/kg)” value ([1]; Dose route PO) was 88 mg/kg and the “6 Hz EC50 (mmol/kg)” value ([1]; Dose route PO) was 0.26 mmol/kg. The “MES-induced tonic seizures vs vehicle control (FIG. 14)” value ([2]; 300 and 600 mg/kg IP and 600 mg/kg oral) was “reduced seizures”, the “MES EC50 (mg/kg)” value ([2]; Dose route IP) was greater than 600 mg/kg and the “MES EC50 (mmol/kg)” value ([2]; Dose route IP) was greater than 1.78 mmol/kg. The “MES EC50 (mg/kg)” value ([2]; Dose route PO) was greater than 600 mg/kg, the “MES EC50 (mmol/kg)” value ([2]; Dose route PO) was greater than 1.78 mmol/kg and the “scPTZ-induced seizures (incidence, onset latency) vs vehicle control (FIGS. 15-16)” value [3, 7] was “reduced seizures”. For the same compound, the “ScPTZ EC50 (mg/kg)” value ([3]; Dose route IP) was 230 mg/kg, the “ScPTZ EC50 (mmol/kg)” value ([3]; Dose route IP) was 0.68 mmol/kg and the “ScPTZ EC50 (mg/kg)” value ([3]; Dose route PO) was 300 mg/kg. For the same compound, the “ScPTZ EC50 (mmol/kg)” value ([3]; Dose route PO) was 0.89 mmol/kg.
